Assay results as given in PMC11062922 (Nature Chemical Biology, 2023).

Columns and labels:
[1] = molecular target: ADCK3 (Homo sapiens, UniProt Q8NI60); assay: Kinobeads competition binding: ADCK3; design: endogenous in cells; conditions: target ADCK3
[2] = test system: CAMK4; assay: Kinobeads competition binding: CAMK4; design: species or system human; conditions: target CAMK4;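 further: selectivity score: engagement of this protein divided by summed engagement of all targets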
[3] = test system: MAP4K5; assay: Kinobeads competition binding: MAP4K5; design: species or system human; conditions: target MAP4K5
[4] = test system: FLAD1; assay: Kinobeads competition binding: FLAD1; design: species or system human; conditions: target FLAD1;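 further: selectivity score: engagement of this protein divided by summed engagement of all targets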
[5] = test system: MST1R; assay: Kinobeads competition binding: MST1R; design: species or system human; conditions: target MST1R;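 further: selectivity score: engagement of this protein divided by summed engagement of all targets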
[6] = molecular target: T1, AKT1 (Homo sapiens, UniProt P31749); assay: Kinobeads competition binding: AKT1; conditions: target AKT1
T1 construct: endogenous in cells
Description: Supplement 41589_2023_1459_MOESM4_ESM.xlsx, sheet "CATDS matrix" | column: AKT1

[7] = test system: NLK; assay: Kinobeads competition binding: NLK; design: species or system human; conditions: target NLK;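 further: selectivity score: engagement of this protein divided by summed engagement of all targets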
[8] = test system: MTHFD1; assay: Kinobeads competition binding: MTHFD1; design: species or system human; conditions: target MTHFD1
[9] = molecular target: T2, CAMK2D (Homo sapiens, UniProt Q13557); assay: Kinobeads competition binding: CAMK2D; conditions: target CAMK2D
T2 construct: endogenous in cells
Description: Supplement 41589_2023_1459_MOESM4_ESM.xlsx, sheet "CATDS matrix" | column: CAMK2D

[10] = molecular target: T3, AURKA (Homo sapiens, UniProt O14965); assay: Kinobeads competition binding: AURKA; conditions: target AURKA
T3 construct: endogenous in cells
T3 sequence (O14965 1-403): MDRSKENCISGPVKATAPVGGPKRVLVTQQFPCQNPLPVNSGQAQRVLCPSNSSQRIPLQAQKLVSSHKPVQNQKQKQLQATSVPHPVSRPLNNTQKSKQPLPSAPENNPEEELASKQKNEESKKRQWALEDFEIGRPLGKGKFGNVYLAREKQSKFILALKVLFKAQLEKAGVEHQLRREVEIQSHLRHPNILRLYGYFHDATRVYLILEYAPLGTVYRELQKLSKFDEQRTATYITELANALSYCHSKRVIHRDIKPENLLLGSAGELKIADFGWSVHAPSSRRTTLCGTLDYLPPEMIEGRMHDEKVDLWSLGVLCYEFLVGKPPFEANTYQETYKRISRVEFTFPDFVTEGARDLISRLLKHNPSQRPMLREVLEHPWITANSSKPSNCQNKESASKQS
Description: Supplement 41589_2023_1459_MOESM4_ESM.xlsx, sheet "CATDS matrix" | column: AURKA

[11] = molecular target: T4, BMPR1B (Homo sapiens, UniProt O00238); assay: Kinobeads competition binding: BMPR1B; conditions: target BMPR1B
T4 construct: endogenous in cells

[12] = test system: ERBB3; assay: Kinobeads competition binding: ERBB3; design: species or system human; conditions: target ERBB3
[13] = molecular target: T5, PKN1 (Homo sapiens, UniProt Q16512); assay: Kinobeads competition binding: PKN1; conditions: target PKN1;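 further: share of total target engagement due to this protein at one drug concentration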
T5 construct: a mixture of lysates from five cancer cell lines; endogenous in cells
Description: Supplement 41589_2023_1459_MOESM4_ESM.xlsx, sheet "CATDS matrix" | column: PKN1

[14] = test system: CDK10; assay: Kinobeads competition binding: CDK10; design: species or system human; conditions: target CDK10
[15] = molecular target: T6, FES (Homo sapiens, UniProt P07332); assay: Kinobeads competition binding: FES; conditions: target FES
T6 construct: endogenous in cells
Description: Supplement 41589_2023_1459_MOESM4_ESM.xlsx, sheet "CATDS matrix" | column: FES

[16] = molecular target: T7, PIM3 (Homo sapiens, UniProt Q86V86); assay: Kinobeads competition binding: PIM3; conditions: target PIM3
T7 construct: a mixture of lysates from five cancer cell lines; endogenous in cells
Description: Supplement 41589_2023_1459_MOESM4_ESM.xlsx, sheet "CATDS matrix" | column: PIM3

[17] = test system: CDC42BPA; assay: Kinobeads competition binding: CDC42BPA; design: species or system human; conditions: target CDC42BPA
[18] = test system: MAPK9; assay: Kinobeads competition binding: MAPK9; design: species or system human; conditions: target MAPK9
[19] = molecular target: T8, CAMK2G (Homo sapiens, UniProt Q13555); assay: Kinobeads competition binding: CAMK2G; conditions: target CAMK2G
T8 construct: endogenous in cells

[20] = molecular target: T9, PIK3CG (Homo sapiens, UniProt P48736); assay: Kinobeads competition binding: PIK3CG; conditions: target PIK3CG
T9 construct: endogenous in cells
Description: Supplement 41589_2023_1459_MOESM4_ESM.xlsx, sheet "CATDS matrix" | column: PIK3CG

[21] = molecular target: T10, CDC7 (Homo sapiens, UniProt O00311); assay: Kinobeads competition binding: CDC7; conditions: target CDC7
T10 construct: endogenous in cells

[22] = test system: PI4KB; assay: Kinobeads competition binding: PI4KB; design: species or system human; conditions: target PI4KB
[23] = molecular target: T11, EPHA4 (Homo sapiens, UniProt P54764); assay: Kinobeads competition binding: EPHA4; conditions: target EPHA4
T11 construct: endogenous in cells
Description: Supplement 41589_2023_1459_MOESM4_ESM.xlsx, sheet "CATDS matrix" | column: EPHA4

[24] = test system: ADK; assay: Kinobeads competition binding: ADK; design: species or system human; conditions: target ADK
[25] = test system: IGF1R; assay: Kinobeads competition binding: IGF1R; design: species or system human; conditions: target IGF1R
[26] = test system: MAP3K12; assay: Kinobeads competition binding: MAP3K12; design: species or system human; conditions: target MAP3K12
[27] = test system: CLK2; assay: Kinobeads competition binding: CLK2; design: species or system human; conditions: target CLK2
[28] = test system: MAP2K4; assay: Kinobeads competition binding: MAP2K4; design: species or system human; conditions: target MAP2K4
[29] = molecular target: ABL1 (Homo sapiens, UniProt P00519); assay: Kinobeads competition binding: ABL1; conditions: target ABL1
Description: Supplement 41589_2023_1459_MOESM4_ESM.xlsx, sheet "CATDS matrix" | column: ABL1

[30] = test system: IRAK3; assay: Kinobeads competition binding: IRAK3; design: species or system human; conditions: target IRAK3

Measured: CATDS

T8 sequence (Q13555 whole entry): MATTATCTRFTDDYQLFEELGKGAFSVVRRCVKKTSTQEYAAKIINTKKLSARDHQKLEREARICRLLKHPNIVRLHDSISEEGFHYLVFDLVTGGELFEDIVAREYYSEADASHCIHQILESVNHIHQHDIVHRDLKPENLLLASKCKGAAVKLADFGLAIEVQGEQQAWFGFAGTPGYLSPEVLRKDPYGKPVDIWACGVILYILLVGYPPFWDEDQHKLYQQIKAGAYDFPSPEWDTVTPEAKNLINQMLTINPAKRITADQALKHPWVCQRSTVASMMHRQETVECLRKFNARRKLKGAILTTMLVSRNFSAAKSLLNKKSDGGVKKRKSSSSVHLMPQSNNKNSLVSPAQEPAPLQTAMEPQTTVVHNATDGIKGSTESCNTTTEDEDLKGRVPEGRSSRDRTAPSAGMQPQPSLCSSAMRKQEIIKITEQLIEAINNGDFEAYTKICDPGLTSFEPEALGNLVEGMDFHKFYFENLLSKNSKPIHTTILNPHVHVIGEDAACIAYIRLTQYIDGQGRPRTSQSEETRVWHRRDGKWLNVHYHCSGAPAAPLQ
T1 sequence (P31749 whole entry): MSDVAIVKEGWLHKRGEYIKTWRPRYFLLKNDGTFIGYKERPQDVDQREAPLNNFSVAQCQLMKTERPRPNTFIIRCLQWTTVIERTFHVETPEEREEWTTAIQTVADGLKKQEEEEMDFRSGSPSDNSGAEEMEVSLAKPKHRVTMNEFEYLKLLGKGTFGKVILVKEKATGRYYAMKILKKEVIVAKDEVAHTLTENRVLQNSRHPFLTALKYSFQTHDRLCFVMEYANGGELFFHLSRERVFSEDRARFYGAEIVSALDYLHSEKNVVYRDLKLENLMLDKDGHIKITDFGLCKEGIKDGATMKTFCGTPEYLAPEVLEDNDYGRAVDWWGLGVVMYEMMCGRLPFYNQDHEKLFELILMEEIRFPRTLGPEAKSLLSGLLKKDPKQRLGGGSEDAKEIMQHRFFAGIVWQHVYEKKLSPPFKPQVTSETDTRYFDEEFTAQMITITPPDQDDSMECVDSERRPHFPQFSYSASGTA
T11 sequence (P54764 20-986): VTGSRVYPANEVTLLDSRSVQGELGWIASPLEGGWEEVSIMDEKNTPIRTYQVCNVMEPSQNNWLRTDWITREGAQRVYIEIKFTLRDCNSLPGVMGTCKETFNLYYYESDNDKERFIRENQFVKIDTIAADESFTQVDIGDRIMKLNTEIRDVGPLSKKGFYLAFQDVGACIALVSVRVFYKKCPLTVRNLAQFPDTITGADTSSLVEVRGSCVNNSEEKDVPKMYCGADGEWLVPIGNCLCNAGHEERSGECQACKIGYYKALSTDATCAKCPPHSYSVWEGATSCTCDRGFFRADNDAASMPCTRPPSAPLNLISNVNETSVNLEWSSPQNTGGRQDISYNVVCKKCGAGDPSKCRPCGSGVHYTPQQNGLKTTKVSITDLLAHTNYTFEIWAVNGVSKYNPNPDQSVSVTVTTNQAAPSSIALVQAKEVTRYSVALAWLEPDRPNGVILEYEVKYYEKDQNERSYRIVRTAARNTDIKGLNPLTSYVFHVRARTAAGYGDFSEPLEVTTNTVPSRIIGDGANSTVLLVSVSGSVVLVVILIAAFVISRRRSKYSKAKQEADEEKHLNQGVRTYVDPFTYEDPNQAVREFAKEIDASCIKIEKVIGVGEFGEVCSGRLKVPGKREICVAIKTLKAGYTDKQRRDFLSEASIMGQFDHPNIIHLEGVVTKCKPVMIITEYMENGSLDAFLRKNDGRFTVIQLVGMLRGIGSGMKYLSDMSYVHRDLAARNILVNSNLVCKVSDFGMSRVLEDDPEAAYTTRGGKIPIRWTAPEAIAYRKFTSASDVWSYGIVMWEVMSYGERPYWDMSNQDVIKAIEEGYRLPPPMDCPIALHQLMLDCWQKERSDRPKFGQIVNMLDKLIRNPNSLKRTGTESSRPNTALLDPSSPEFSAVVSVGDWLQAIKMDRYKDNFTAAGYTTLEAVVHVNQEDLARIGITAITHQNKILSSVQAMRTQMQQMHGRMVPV
T4 sequence (O00238 14-502): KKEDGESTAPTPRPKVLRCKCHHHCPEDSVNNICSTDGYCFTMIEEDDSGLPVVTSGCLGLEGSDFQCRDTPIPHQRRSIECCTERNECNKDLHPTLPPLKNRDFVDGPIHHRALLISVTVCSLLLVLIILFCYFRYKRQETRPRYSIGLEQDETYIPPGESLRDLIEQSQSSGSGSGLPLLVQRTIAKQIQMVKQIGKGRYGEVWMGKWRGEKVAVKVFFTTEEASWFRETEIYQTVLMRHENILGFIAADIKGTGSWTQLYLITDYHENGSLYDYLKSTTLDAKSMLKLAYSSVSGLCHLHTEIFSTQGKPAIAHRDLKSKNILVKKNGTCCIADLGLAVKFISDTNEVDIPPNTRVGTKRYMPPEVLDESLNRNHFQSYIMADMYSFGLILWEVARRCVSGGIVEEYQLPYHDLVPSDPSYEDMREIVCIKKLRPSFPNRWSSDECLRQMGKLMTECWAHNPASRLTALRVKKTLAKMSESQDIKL
T6 sequence (P07332 whole entry): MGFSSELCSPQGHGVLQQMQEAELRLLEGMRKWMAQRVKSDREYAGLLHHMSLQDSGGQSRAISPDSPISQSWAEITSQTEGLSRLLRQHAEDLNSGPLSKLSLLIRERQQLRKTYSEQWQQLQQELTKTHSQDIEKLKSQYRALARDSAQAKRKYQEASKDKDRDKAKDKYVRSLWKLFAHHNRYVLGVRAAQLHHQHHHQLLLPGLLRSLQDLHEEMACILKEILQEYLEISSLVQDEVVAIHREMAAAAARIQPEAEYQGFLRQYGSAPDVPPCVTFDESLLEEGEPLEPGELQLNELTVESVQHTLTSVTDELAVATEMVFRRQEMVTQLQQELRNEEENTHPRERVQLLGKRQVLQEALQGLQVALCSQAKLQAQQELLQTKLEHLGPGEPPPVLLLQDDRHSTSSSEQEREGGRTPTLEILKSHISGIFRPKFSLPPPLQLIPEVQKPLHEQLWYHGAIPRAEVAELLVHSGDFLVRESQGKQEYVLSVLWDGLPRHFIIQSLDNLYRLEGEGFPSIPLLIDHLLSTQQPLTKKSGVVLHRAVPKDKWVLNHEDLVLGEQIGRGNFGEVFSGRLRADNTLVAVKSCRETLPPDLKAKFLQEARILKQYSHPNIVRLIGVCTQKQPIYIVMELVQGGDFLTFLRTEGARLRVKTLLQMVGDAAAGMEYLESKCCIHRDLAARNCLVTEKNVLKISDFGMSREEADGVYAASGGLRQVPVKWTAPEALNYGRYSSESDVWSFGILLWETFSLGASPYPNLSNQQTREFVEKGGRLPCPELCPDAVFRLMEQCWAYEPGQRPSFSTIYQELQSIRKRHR
ABL1, sequence (P00519 28-1130 limits assumed): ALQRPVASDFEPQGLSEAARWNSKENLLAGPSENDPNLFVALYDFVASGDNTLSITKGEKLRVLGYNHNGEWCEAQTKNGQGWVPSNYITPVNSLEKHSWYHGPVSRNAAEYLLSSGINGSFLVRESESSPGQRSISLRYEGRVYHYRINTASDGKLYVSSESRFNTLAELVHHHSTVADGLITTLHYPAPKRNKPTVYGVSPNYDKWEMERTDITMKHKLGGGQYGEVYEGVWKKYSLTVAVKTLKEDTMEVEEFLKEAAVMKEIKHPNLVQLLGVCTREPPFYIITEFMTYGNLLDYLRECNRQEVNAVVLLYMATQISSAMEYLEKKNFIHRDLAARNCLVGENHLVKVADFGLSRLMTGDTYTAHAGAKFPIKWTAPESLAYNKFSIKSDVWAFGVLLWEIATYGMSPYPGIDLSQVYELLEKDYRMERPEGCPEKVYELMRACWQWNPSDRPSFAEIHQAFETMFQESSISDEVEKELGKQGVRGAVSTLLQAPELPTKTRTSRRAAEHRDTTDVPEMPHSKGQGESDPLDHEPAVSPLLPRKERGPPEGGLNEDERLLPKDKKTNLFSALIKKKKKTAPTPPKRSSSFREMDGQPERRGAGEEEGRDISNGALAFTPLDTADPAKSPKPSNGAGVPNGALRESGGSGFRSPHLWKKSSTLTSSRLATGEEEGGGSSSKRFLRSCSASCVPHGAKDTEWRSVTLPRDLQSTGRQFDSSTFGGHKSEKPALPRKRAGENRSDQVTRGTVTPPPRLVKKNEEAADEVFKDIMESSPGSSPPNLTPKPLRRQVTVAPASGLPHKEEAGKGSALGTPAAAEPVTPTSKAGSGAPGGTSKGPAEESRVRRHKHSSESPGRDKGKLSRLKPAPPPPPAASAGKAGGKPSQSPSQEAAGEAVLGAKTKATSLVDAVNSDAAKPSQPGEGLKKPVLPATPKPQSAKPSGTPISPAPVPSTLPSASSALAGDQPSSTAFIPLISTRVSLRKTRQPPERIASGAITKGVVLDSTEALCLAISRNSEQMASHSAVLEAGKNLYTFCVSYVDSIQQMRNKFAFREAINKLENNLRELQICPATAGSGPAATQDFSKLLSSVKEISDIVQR

Nc1ncnc2[nH]c(-c3ccccc3)nc12 [AH5015_KCGS]
0: all assays above

CCc1cc2c(cc1N1CCC(N3CCOCC3)CC1)C(C)(C)c1[nH]c3cc(C#N)ccc3c1C2=O [Alectinib]
0: all assays above

CCN1CCN(Cc2ccc(Nc3ncc(F)c(-c4cc(F)c5nc(C)n(C(C)C)c5c4)n3)nc2)CC1 [Abemaciclib]
0.08654: [9]
0.09397: [19]
0: all other assays above

CN(C)C/C=C/C(=O)Nc1cc2c(Nc3ccc(F)c(Cl)c3)ncnc2cc1O[C@H]1CCOC1 [Afatinib]
0: [4] | [6] | [8] | [9] | [10] | [13] | [14] | [15] | [16] | [20] | [23] | [24] | [29]

N#CC1(c2ccc(NC(=O)c3cccnc3NCc3ccncc3)cc2)CCCC1 [Apatinib]
0: all assays above
